Assay [1] concerns Aspergillus fumigatus (RCMB 2003). Description: Antimicrobial screening, disc diffusion. The following applies: for zone of inhibition at 1000 µg/mL: RCMB2003, Standard Antibiotics (1 mg/ml), read-out: Diameter of inhibition zone; for Diameter of inhibition zone: compounds isolated from Cunninghamella elegans. Format: cell-based. The protocol: (§1) The alcoholic extracts obtained were used for testing their antimicrobial activity. Each extract (0.5 g) was dissolved in 10 ml water. Same concentrations for the successive extracts (using diethyl ether, chloroform, ethyl acetate and n-butanol) were also prepared.
(§2) The representatives of Gram negative bacteria, namely Salmonella typhimuium (RCMB 0104), Escherichia coli (RCMB 0103), Pseudomonas aeruginosa (RCMB 0102) and Gram positive bacteria, namely Bacillus subtilis (RCMB 0107), Staphylococcus aureus (RCMB 0106), Streptococcus pyogenes (RCMB 0109), unicellular fungi, namely Candida albicans (RCMB 5002) and filamentous fungi, namely Aspergillus fumigatus (RCMB 2003) and Penicllium expansum (RCMB 1006) were used as test organisms (RCMB: The Regional Center for Mycology and Biotechnology, Al-azhar University Nasser City, Cairo, Egypt).
(§3) For antimicrobial screening the well known disc diffusion and agar well diffusion methods were used, together with the determination of minimum inhibitory concentration (MIC), see Duguid et al., Microbial Infections, The English Language Book Society, Churchill Livingston, Edingburgh, London, 1978; vol. 1, page 110.
(§4) Disc diffusion method: The agar disc diffusion method is employed for the determination of antimicrobial activities of the extracts of the investigated fungal species. Sterilized paper discs (Whatman No. 1) ([…]) were separately soaked in the extracts and transferred onto the surface of growth media seeded with the test organism. After incubation period, following suitable conditions for the test organism, the diameter of the inhibition zone around the discs was measured in millimeters. The obtained result was the mean of three experiments.
(§5) Each fungal species was grown on malt extract media at 28±2° C. for 14 days. The metabolites of the fungal species were screened for antimicrobial activity. The inhibition zones around each disc were measured, in millimeter, and recorded (Tables 1).
A general note: Agar diffusion results depend on both activity and mobility in agar.

Assay [2] relates to Candida albicans (RCMB 5002). Nature of the assay: Antimicrobial screening, disc diffusion. Conditions: for zone of inhibition at 1000 µg/mL: RCMB5002, Standard Antibiotics (1 mg/ml), read-out: Diameter of inhibition zone; for Diameter of inhibition zone: compounds isolated from Cunninghamella elegans. Format: cell-based. The protocol:
as §1, §2, §3, §4, §5

Assay [3] concerns Penicllium expansum (RCMB 1006). Description: Antimicrobial screening, disc diffusion. Format: cell-based. Conditions: Penicillium expansum; for zone of inhibition at 1000 µg/mL: RCMB1006, Standard Antibiotics (1 mg/ml), read-out: Diameter of inhibition zone; for Diameter of inhibition zone: compounds isolated from Cunninghamella elegans. Here is the method:
as §1, §2, §3, §4, §5

The subject of assay [4] is Bacillus subtilis (RCMB 0107). Nature of the assay: Antimicrobial screening, disc diffusion. Format: cell-based. The protocol:
as §1, §2, §3, §4, §5

Assay [5] has as its system Escherichia coli (RCMB 0103). Nature of the assay: Antimicrobial screening, disc diffusion. Format: cell-based. The protocol:
as §1, §2, §3, §4, §5

For assay [6], the system named is Pseudomonas aeruginosa (RCMB 0102). Nature of the assay: Antimicrobial screening, disc diffusion. Format: cell-based. Conditions: Pseudomonas aeurginosa. The protocol: as §1, §2, §3, §4, §5
Assay [7] relates to Staphylococcus aureus (RCMB 0106). Nature of the assay: Antimicrobial screening, disc diffusion. Format: cell-based. Here is the method: as §1, §2, §3, §4, §5
Assay [8] relates to Streptococcus pyogenes (RCMB 0109). Description: Antimicrobial screening, disc diffusion. Format: cell-based. Here is the method: as §1, §2, §3, §4, §5
Assay [9] relates to Salmonella typhimuium (RCMB 0104). Nature of the assay: Antimicrobial screening, disc diffusion. Format: cell-based. The following applies: Salmonella typhimuim. The protocol:
as §1, §2, §3
Disc diffusion method: The agar disc diffusion method is employed for the determination of antimicrobial activities of the extracts of the investigated fungal species. Sterilized paper discs (Whatman No. 1) ([…]) were separately soaked in the extracts and transferred onto the surface of growth media seeded with the test organism. After incubation period, following suitable conditions for the test organism, the diameter of the inhibition zone around the discs was measured in millimeters.
Each fungal species was grown on malt extract media at 28±2° C. for 14 days. The metabolites of the fungal species were screened for antimicrobial activity.

For assay [10], the system named is Staphylococcus aureus infected wounds. Nature of the assay: Wound healing activity, excision wound model. Format: in vivo, guinea pig. The protocol: Swiss albino mice (20-25 g), male Sprague-Dawley rats (160-180 g) and male guinea pigs (240-260 g) were employed in the study. The animals were left for 2 weeks at room conditions to ensure stabilization before use. They were maintained on standard pellet diet and water ad libitum throughout the experiment. • a) Acute Toxicity: Mice were divided into groups of 6 and the methanol extracts of C. blakesleeana, C. elegans and C. homothallica were administered orally in increasing doses. […] Rats of the 1^St group were given a vehicle (1% v/v Tween 80) in a dose of 5 ml kg^−1 and left as normal control. Rats of the 2nd, 3rd, and 4th groups were administered the methanol extracts of C. blakesleeana, C. elegans and C. homothallica, respectively in a dose of 200 mg kg^−1. All medications were administered orally via the aid of an oral tube for 35 days. […] At the end of the experimental period, blood samples (2 mL) were collected from the retro-orbital venous plexus of each rat (under ether anesthesia) into clean centrifuge tubes. The blood samples were allowed to clot at room temperature for 30 min after which they were centrifuged at 10,000 rpm for 5 minutes. Sera were separate with Pasteur pipette into sterile serum sample tubes and used for biochemical assay.
Measurement of Liver and Kidney Function Markers: • Liver functions were evaluated by measuring the serum activity of aspartate aminotransferase (AST) and alanine aminotransferase (ALT) following the method of Reitman and Frankel, Am. J. Clin. Path., 28: 55-60, alkaline phosphatase enzyme (ALP) by the method of Babson et al., Clinical Chemistry, 12: 482-490. Serum levels of total bilirubin, total proteins and albumin were also assayed. Globulin was obtained from the difference between total proteins and albumin. Serum concentrations of uric acid, urea and creatinine were determined colormetrically as measures of kidney functions. All measurements were carried out by protocols well known in the art. • c) Wound Healing Activity: The excision wound model was used to monitor wound contraction and wound closure time. Four groups of male guinea pigs were used in the experiment with 6 animals in each group. At the beginning of the experiment, the dorsal skin of each guinea pig was shaved with an electric clipper. After 24 hours, all animals were anesthetized by diethyl ether and the shaved areas were sterilized with 70% alcoholic solution. A predetermined dorsal area (15 mm×20 mm) was inflicted by cutting away a full thickness of skin (2 mm depth) using toothed forceps, scalpel and pointed scissors. A fresh surgical blade was used for the perpendicular cut in each animal and tension of skin was kept constant during the procedure. Local infection with Staphylococcus aureus was introduced into wounds using 0.5 mL of 10^8 bacteria mL^−1 inoculums. The wounds were left undressed to the open environment and the animals were kept individually in separate cages. • Wounds treatment: Wounds were air exposed and treatment began 24 h after injury. Wounds of the control animals were treated with the vehicle (1% v/v Tween 80). Guinea pigs of the second and third group were treated with total alcohol extract of C. elegans and the isolated compound (adenosine) in a concentration of 5 mg mL^−1, while animals of the fourth group were medicated with latamoxef (Moxalactam)® in a concentration of 30 μg mL^−1 (Reference group). The vehicle, extract, and reference drug were applied topically on the wound surface once a day for 18 days. […] of each tested material was applied slowly, using an insulin syringe, from the central point extending outside the wound area to ensure inclusion of the edges. Swabs were taken on day 5 to confirm the presence of the expected organisms in the pus. • Assessment of wound healing: The wound areas were measured while the animals were under anaesthesia on days 0, 4, 7, 10, 14, and 18 post-wounding by tracing the wound areas onto a transparent tracing paper. […]

Where [11] appears, read: compounds isolated from Cunninghamella elegans.
The mark [12] stands for this setting: topical 30 μg mL^−1 once a day, n = 6.
The mark [13] stands for this setting: topical 30 μg mL^−1 once a day, n = 6, listed as latamoxef.

Marks after values point to notes of the source that are not given here.

What is called zone of inhibition is the extent of the growth-free halo in a diffusion test. In the case of `Clc1ccccc1C(c1ccccc1)(c1ccccc1)n1ccnc1` [Clotrimazole, reference compound], the figures for the zone of inhibition at 1000 µg/mL in assay [1], in [2] and in [3] were 26 ± 0.1 mm, 18 ± 0.1 mm and 23 ± 0.3 mm, respectively.
In the case of `CCCCCCCCCCCCCCCC(=O)O` [Compound 1, palmitic acid], the “Diameter of inhibition zone” value in assay [1], in assay [4] (setting [11]), in assay [2], in assay [5] (setting [11]), in assay [3] and in assay [6] (setting [11]) was 00.0 mm throughout. The “Diameter of inhibition zone” value in [7] (setting [11]) is reported as 13.0 mm; in assay [8] (setting [11]) it was 00.0 mm; in assay [9] (setting [11]), 00.0 mm.
For the compound `CCCCCCCC/C=C\CCCCCCCC(=O)O` [Compound 2, oleic acid], the “Diameter of inhibition zone” value in [1], in [4] (setting [11]), in assay [2], in assay [5] (setting [11]), in [3] and in assay [6] (setting [11]) was 00.0 mm throughout. In addition, the figures for the “Diameter of inhibition zone” value in assay [7] (setting [11]), in assay [8] (setting [11]) and in assay [9] (setting [11]) were 11.0 ± 0.3 mm, 00.0 mm and 00.0 mm, respectively.
On to `CCCCCCCCCCCCCCCCCC(=O)O` [Compound 3, stearic acid], for which the “Diameter of inhibition zone” value in assay [1], in assay [4] (setting [11]), in assay [2], in assay [5] (setting [11]), in assay [3] and in assay [6] (setting [11]) was 00.0 mm throughout. Moreover, the “Diameter of inhibition zone” value in assay [7] (setting [11]) is 15.0 ± 0.5 mm; in [8] (setting [11]) it was 00.0 mm; in [9] (setting [11]), 00.0 mm.
Regarding `CCC(C)n1ncn(-c2ccc(N3CCN(c4ccc(OCC5COC(Cn6cncn6)(c6ccc(Cl)cc6Cl)O5)cc4)CC3)cc2)c1=O` (centres unmarked) [Itraconazole, reference compound], the zone of inhibition at 1000 µg/mL came out at 28 ± 0.5 mm in assay [1], 26 ± 0.2 mm in [2] and 27 ± 0.1 mm in [3].
Consider `CO[C@@]1(NC(=O)C(C(=O)O)c2ccc(O)cc2)C(=O)N2C(C(=O)O)=C(CSc3nnnn3C)CO[C@@H]21` (some centres unmarked) [Latamoxef, latamoxef, reference compound], for which, in assay [10] (Day 14, topical 30 μg mL^−1), the wound contraction came out at 100%. Moreover, the “Wound area on day 0” value in assay [10] (day 0, topical 30 μg mL^−1 once a day, n = 6) is reported as 300 ± 0.0 mm^2. Further, the “Wound area on day 4” value in [10] (day 4, topical 30 μg mL^−1 once a day, n = 6) is 219.4 ± 9.37** mm^2. Besides, the “Wound area on day 7” value in assay [10] (day 7, topical 30 μg mL^−1 once a day, n = 6) is recorded as 146.4 ± 5.60*** mm^2. Besides, in [10] (setting [12]), the “Wound area on day 10” value is given as 42.6 ± 1.85*** mm^2 and the “Wound area on day 14” value is listed as 0.0 ± 0.0 mm^2. Further, in [10] (setting [13]), the “Wound area on day 10” value is 42.6±1.85 mm^2 and the “Wound area on day 14” value is 0.0 mm^2.
`CC1(C)S[C@@H]2[C@H](NC(=O)Cc3ccccc3)C(=O)N2[C@H]1C(=O)O` [Penicillin G, reference compound]: the “Diameter of inhibition zone” value in assay [4] (Standard Antibiotics (1 mg/ml)) turned out to be 32.5 ± 0.5 mm; in assay [5] (Standard Antibiotics (1 mg/ml)), 33.5 ± 0.8 mm; in assay [6] (Standard Antibiotics (1 mg/ml)), 28.3 ± 0.1 mm; in assay [7] (Standard Antibiotics (1 mg/ml)), 29.5 ± 0.8 mm; in assay [8] (Standard Antibiotics (1 mg/ml)) it was 31.4 ± 0.1 mm; in assay [9] (Standard Antibiotics (1 mg/ml)) it was 34.3 ± 0.4 mm.
On to `[H]/N=C(/N)N[C@H]1[C@H](O)[C@@H](O)[C@H](O[C@@H]2O[C@@H](C)[C@](O)(C=O)[C@H]2O[C@@H]2O[C@@H](CO)[C@H](O)[C@@H](O)[C@@H]2NC)[C@@H](N/C(N)=N\[H])[C@@H]1O` [Streptomycin, reference compound], for which the “Diameter of inhibition zone” value is on record as 29.0 ± 0.4 mm in assay [4] (Standard Antibiotics (1 mg/ml)); 25.0 ± 0.3 mm in [5] (Standard Antibiotics (1 mg/ml)); 24.0 ± 0.1 mm in [6] (Standard Antibiotics (1 mg/ml)); 25.0 ± 0.2 mm in [7] (Standard Antibiotics (1 mg/ml)); 24.0 ± 0.4 mm in assay [8] (Standard Antibiotics (1 mg/ml)); 28.0 ± 0.3 mm in assay [9] (Standard Antibiotics (1 mg/ml)).

The values are drawn from patent publication US20130224239A1, “ALCOHOLIC EXTRACT OF FUNGI OF GENUS […] AND USE THEREOF” (KING SAUD UNIVERSITY, priority 2011, published 2013).
